This note sets out measurements from paper PMC9499525, “Tissue-restricted inhibition of mTOR using chemical genetics” (Proceedings of the National Academy of Sciences of the …, 2022).

Common to all, as to assay type: cell-based, human
In assay [1] the test system is mTOR signaling in Flp-In T-REx 293 cells. The experiment in a line: mTOR signaling by Western blot in parental (wild-type) Flp-In 293 cells. The conditions noted are these: for IC50: Homo sapiens, 24 h treatment, wild-type 293 cells. The procedure:
(§1) All cell lines were maintained in DMEM (Gibco) supplemented with 10% heat-inactivated FBS (Axenia Biologix) at 37 °C in 5% CO2. Flp-In T-REx 293 cells were obtained from Thermo Fisher supplemented with 15 µg/mL blasticin and 100 µg/mL Zeocin. Flp-In T-REx 293 FKBP12 V55G cells were supplemented with 15 µg/mL blasticin and 150 µg/mL hygromycin B. FKBP12 V55G expression was induced with 1 µg/mL doxycycline 24 h prior to drug treatments. MCF7 cells were obtained from ATCC (American Type Culture Collection), and MCF7 mTOR F2108L cells were described previously ([30]). When indicated, cells were treated with drugs at 60–80% confluency at a final DMSO concentration of 0.1%. At the end of the treatment period, cells were placed on ice and washed once with PBS. Cells were scraped with a spatula and lysed in radioimmunoprecipitation assay (RIPA) buffer supplemented with protease and phosphatase inhibitors (cOmplete and phosSTOP, Roche) on ice for 5 min. Lysates were clarified by high-speed centrifugation. Lysate concentration was determined by Bradford assay (Thermo Fisher) and adjusted to 2 mg/mL with additional RIPA buffer. Samples were mixed with 5x SDS loading dye and heated at 95 °C for 5 min.
SDS-PAGE was run with Novex 4–12% Bis-Tris gel (Invitrogen) in MOPS running buffer at 200V for 40 min. Samples were loaded at 20 µg lysate per lane. […] Following three 5 min. washes with TBST, membranes were imaged on a Li-COR Odyssey fluorescence imager. […] Blot quantification was performed in Fiji, and data were graphed and fit in Prism 9 (GraphPad). […] For detection of phosphorylated and total protein, primary antibodies for phospho-Akt/Akt, phospho-S6K/S6K, or phospho-S6/S6 were combined and detected using a mixture of species-specific secondary antibodies with orthogonal fluorescence to allow simultaneous detection of phosphorylated and total protein from a single membrane, or membrane was stripped (Cell Signaling Technology) after detection of phosphorylated protein and then reblocked and reprobed with primary antibody for total protein.

Assay [2] relates to mTOR signaling in Flp-In T-REx 293 FKBP12 V55G cells. The experiment in a line: mTOR signaling by Western blot in FKBP12 V55G-expressing Flp-In 293 cells. The conditions noted are these: for IC50: Homo sapiens, 24 h treatment, mutant (FKBP12 V55G) 293 cells. The procedure: as §1
SDS-PAGE was run with Novex 4–12% Bis-Tris gel (Invitrogen) in MOPS running buffer at 200V for 40 min. Samples were loaded at 20 µg lysate per lane. Protein bands were transferred onto 0.2 µm nitrocellulose membranes (Bio-Rad) using wet tank transfer apparatus (Bio-Rad Criterion Blotter) in 1x TOWBIN buffer with 10% methanol at 75V for 45 min. Membranes were blocked in 5% BSA-TBST (tris-buffered saline, 0.1% Tween 20) for 1 h at room temperature. Membranes were cut into separate strips for each primary antibody. Primary antibody binding was performed with the indicated antibodies at manufacturer’s recommended dilution in 5% BSA-TBST at 4 °C overnight. After three 5 min. washes with TBST, secondary antibodies (Li-COR) were added as solutions in 5% skim milk-TBST at 1:10,000 dilutions. Secondary antibodies were incubated for 1 h at room temperature. Following three 5 min. washes with TBST, membranes were imaged on a Li-COR Odyssey fluorescence imager. Image contrast was adjusted independently for each strip using the “Auto” adjustment function in Fiji. Blot quantification was performed in Fiji, and data were graphed and fit in Prism 9 (GraphPad). The following primary antibodies were obtained from Cell Signaling Technology (CST), Abcam (ab), and ProteinTech (PT): S6 (CST 2317), phospho-S6 S240/244 (CST 5364), S6K (CST 2708), phospho-S6K T389 (CST 9206), Akt (CST 2920), phospho-Akt S473 (CST 4060), HA (CST 3724), FKBP12 (ab58072), and GAPDH (PT 60004). For detection of phosphorylated and total protein, primary antibodies for phospho-Akt/Akt, phospho-S6K/S6K, or phospho-S6/S6 were combined and detected using a mixture of species-specific secondary antibodies with orthogonal fluorescence to allow simultaneous detection of phosphorylated and total protein from a single membrane, or membrane was stripped (Cell Signaling Technology) after detection of phosphorylated protein and then reblocked and reprobed with primary antibody for total protein. […]
Generation of 293 Flp-In T-REx FKBP12 V55G cell line
FKBP12 V55G-expressing Flp-In T-REx 293 cells were generated using recommended conditions from Thermo Fisher. Briefly, human FKBP12 V55G-HA coding sequence was cloned into the pcDNA5/FRT/TO targeting vector by Gibson assembly. […]

Assay [3] has as its system Flp-In 293 cells with and without FKBP12 V55G-HA. The experiment in a line: Cell growth by CellTiter-Glo in Flp-In 293 cells. To be noted: 72 h treatment.
Method: All cell lines were maintained in DMEM (Gibco) supplemented with 10% heat-inactivated FBS (Axenia Biologix) at 37 °C in 5% CO2. Flp-In T-REx 293 cells were obtained from Thermo Fisher supplemented with 15 µg/mL blasticin and 100 µg/mL Zeocin. […] When indicated, cells were treated with drugs at 60–80% confluency at a final DMSO concentration of 0.1%.
Cells were seeded into 96-well tissue-culture treated plates (Greiner) and were allowed to incubate for 24 h. Cells were treated with indicated compounds and incubated for 72 h (100 µL final well volume, 0.1% DMSO). Cell viability was assessed by CellTiter-Glo (Promega). Assay reagent was diluted 1:4 in PBS containing 1% Triton X-100, and 100 µL was added to each well and mixed on a plate shaker for 20 min. Luminescence was measured on a Tecan Spark 20M.

Each structure is given as a SMILES string. Where two headings read alike, the source gives them in different places.

Consider `CCO/N=C1/C[C@@H]([C@H](C)C[C@@H]2CC[C@@H](O)[C@H](OC)C2)OC(=O)[C@@H]2CCCCN2C(=O)C(=O)[C@]2(O)O[C@@H](CC[C@H]2C)C[C@H](OC)/C(C)=C/C=C/C=C/[C@@H](C)C[C@@H](C)C(=O)[C@H](OC)[C@H](O)/C(C)=C/[C@H]1C` [Rapa*-3Z], for which, in assay [1] (10 nM, time course), the “mTOR signaling in wild-type 293 cells” value was “unaffected”. The IC50 in assay [1] (read-out: IC50 phospho-S6) amounted to 0.121 µM; in assay [1] (read-out: IC50 phospho-S6K) it was 0.076 µM; in assay [2] (read-out: IC50 phospho-S6), 0.0013 µM; in assay [2] (read-out: IC50 phospho-S6K), 0.001 µM. Further, the “Time to half-maximal inhibition of S6 phosphorylation” value in assay [2] (10 nM, mutant FKBP12 293 cells) is 31 min. Further, the “Akt phosphorylation (mTORC2 substrate)” value in assay [2] (24 h, mutant vs wild-type 293 cells) is recorded as “selectively reduced Akt phosphorylation in the mutant 293 cells at higher doses”. Besides, the “Increase in sensitivity in mutant-expressing cells vs wild-type cells” value in assay [2] (p-S6K and p-S6 IC50s, 24 h) is listed as about 100 fold. Further, the “Cell growth inhibition, 293 cells with and without FKBP12 V55G” value in assay [3] was “selectively inhibited growth of mutant-expressing 293 cells”.
